Measured values: ChEMBL document CHEMBL4130387, “Design, synthesis and in vivo study of novel pyrrolidine-based 11β-HSD1 inhibitors for age-related cognitive dysfunction” (Eur J Med Chem, 2017)
Activity calls are given as the source filed them. The calls are words filed in the database; no cut-off is given here.

How the values were obtained:
[1] = target: 11-beta-hydroxysteroid dehydrogenase 1 (Homo sapiens, UniProt P28845); assay: Inhibition of 11beta-HSD1 in human liver microsomes using [3H]cortisone as substrate preincubated for 15 mins followed by substrate addition and measured after 30 mins by scintillation proximity assay
Chain of 11-beta-hydroxysteroid dehydrogenase 1 (Homo sapiens, UniProt P28845) (P28845 whole entry): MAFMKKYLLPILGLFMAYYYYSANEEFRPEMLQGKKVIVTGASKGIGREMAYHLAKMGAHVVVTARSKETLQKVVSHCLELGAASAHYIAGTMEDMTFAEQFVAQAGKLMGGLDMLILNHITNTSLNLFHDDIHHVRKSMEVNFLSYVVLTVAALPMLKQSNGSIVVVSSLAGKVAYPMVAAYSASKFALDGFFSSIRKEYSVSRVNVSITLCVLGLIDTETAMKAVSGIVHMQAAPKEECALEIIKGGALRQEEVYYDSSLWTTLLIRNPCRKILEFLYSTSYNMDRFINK

[2] = target: T1, 11-beta-hydroxysteroid dehydrogenase type 2 (Homo sapiens, UniProt P80365); assay: Inhibition of human full-length 11beta-HSD2 expressed in HEK293 cells using cortisol as substrate after 2 hrs by LC-MS analysis; format: cell-based
T1 sequence (P80365 whole entry): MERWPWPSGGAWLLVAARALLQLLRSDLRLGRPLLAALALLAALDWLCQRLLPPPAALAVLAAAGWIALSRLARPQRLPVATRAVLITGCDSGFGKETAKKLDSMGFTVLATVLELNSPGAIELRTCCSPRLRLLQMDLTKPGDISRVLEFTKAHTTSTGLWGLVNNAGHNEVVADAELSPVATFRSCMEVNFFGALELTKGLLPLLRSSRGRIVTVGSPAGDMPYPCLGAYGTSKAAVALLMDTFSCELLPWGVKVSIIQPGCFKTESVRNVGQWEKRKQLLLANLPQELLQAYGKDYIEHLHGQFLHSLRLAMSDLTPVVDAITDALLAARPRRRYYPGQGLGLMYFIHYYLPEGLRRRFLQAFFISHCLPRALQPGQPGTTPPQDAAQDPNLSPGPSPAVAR

[3] = Stability in human liver microsomes at 10 uM after 30 mins by LC-MS/MS analysis; format: ADME, microsome; settings: read-out: Stability
[4] = Effective permeability by PAMPA; format: ADME; settings: read-out: Peff
[5] = target: 11-beta-hydroxysteroid dehydrogenase 1 (Mus musculus, UniProt P50172); assay: Inhibition of 11beta-HSD1 in CD1 mouse liver microsomes using cortisone as substrate preincubated for 15 mins followed by substrate addition and measured after 30 mins by LC-MS analysis
Chain of 11-beta-hydroxysteroid dehydrogenase 1 (Mus musculus, UniProt P50172) (P50172 whole entry): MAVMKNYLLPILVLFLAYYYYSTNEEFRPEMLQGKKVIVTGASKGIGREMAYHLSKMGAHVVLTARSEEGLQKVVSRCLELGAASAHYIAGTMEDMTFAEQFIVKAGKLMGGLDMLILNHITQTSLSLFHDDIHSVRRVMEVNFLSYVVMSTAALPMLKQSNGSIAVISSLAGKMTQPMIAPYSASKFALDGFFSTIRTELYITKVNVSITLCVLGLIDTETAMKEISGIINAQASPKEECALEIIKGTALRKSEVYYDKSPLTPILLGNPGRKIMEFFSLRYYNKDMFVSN

[6] = Stability in mouse liver microsomes at 10 uM after 30 mins by LC-MS/MS analysis; format: ADME, microsome; settings: read-out: Stability
[7] = Drug uptake in CD1 mouse brain at 21 mg/kg, po after 3 hrs by UPLC-MS/MS analysis; format: ADME, organism-based; settings: read-out: Drug uptake
Mus musculus [8] = assay: Cognitive enhancing effect in SAMP8 mouse assessed as prevention of short-term memory deficits by measuring time spent on exploring novel objects at 21 mg/kg, po for 4 days and measured during 10 mins retention trial after 2 hrs by novel object recognition test; format: functional, organism-based
Mus musculus [9] = assay: Cognitive enhancing effect in SAMP8 mouse assessed as prevention of short-term memory deficits by measuring time spent on exploring novel objects at 21 mg/kg, po for 4 days and measured during 10 mins retention trial after 24 hrs by novel object recognition test; format: functional, organism-based
Mus musculus [10] = assay: Downregulation of iNOS mRNA levels in SAMP8 mouse at 21 mg/kg, po for 4 days by qRT-PCR analysis; format: functional, organism-based
Mus musculus [11] = assay: Downregulation of IL-6 mRNA levels in SAMP8 mouse at 21 mg/kg, po for 4 days by qRT-PCR analysis; format: functional, organism-based
Mus musculus [12] = assay: Downregulation of APP beta-secretase C-terminal fragment protein levels in SAMP8 mouse brain at 21 mg/kg, po for 4 days by Western blot analysis; format: functional, organism-based
Mus musculus [13] = assay: Upregulation of IDE protein levels in SAMP8 mouse brain at 21 mg/kg, po for 4 days by Western blot analysis; format: functional, organism-based
Mus musculus [14] = assay: Effect on pre-APP mRNA levels in SAMP8 mouse brain at 21 mg/kg, po for 4 days by qRT-PCR analysis; format: functional, organism-based
Mus musculus [15] = assay: Effect on ADAM10 mRNA levels in SAMP8 mouse brain at 21 mg/kg, po for 4 days by qRT-PCR analysis; format: functional, organism-based
Mus musculus [16] = assay: Effect on Bace1 mRNA levels in SAMP8 mouse brain at 21 mg/kg, po for 4 days by qRT-PCR analysis; format: functional, organism-based
[17] = Plasma concentration in CD1 mouse at 21 mg/kg, po after 0.5 hrs by UPLC-MS/MS analysis; format: ADME, organism-based
[18] = Plasma concentration in CD1 mouse at 21 mg/kg, po after 1 hr by UPLC-MS/MS analysis; format: ADME, organism-based
[19] = Plasma concentration in CD1 mouse at 21 mg/kg, po after 3 hrs by UPLC-MS/MS analysis; format: ADME, organism-based
[20] = Plasma concentration in CD1 mouse at 21 mg/kg, po after 5 hrs by UPLC-MS/MS analysis; format: ADME, organism-based
Mus musculus [21] = assay: Upregulation of PSD95 mRNA levels in SAMP8 mouse at 21 mg/kg, po for 4 days by qRT-PCR analysis; format: functional, organism-based
Mus musculus [22] = assay: Effect on pre-APP protein levels in SAMP8 mouse brain at 21 mg/kg, po for 4 days by Western blot analysis; format: functional, organism-based
[23] = Ratio of plasma concentration in CD1 mouse at 21 mg/kg, po after 0.5 hrs by UPLC-MS/MS analysis to IC50 for inhibition of 11beta-HSD1 in human liver microsomes; format: organism-based; settings: in vivo
[24] = Elimination rate constant in CD1 mouse at 21 mg/kg, po by UPLC-MS/MS analysis; format: ADME, organism-based; settings: in vivo
[25] = Apparent half-life of the terminal disposition phase in CD1 mouse at 21 mg/kg, po by UPLC-MS/MS analysis; format: ADME, organism-based; settings: in vivo, read-out: t1/2 lambda z (converted)
[26] = Tmax in CD1 mouse at 21 mg/kg, po by UPLC-MS/MS analysis; format: ADME, organism-based; settings: in vivo
[27] = Cmax in CD1 mouse at 21 mg/kg, po by UPLC-MS/MS analysis; format: ADME, organism-based; parameters: dose 21 mg/kg, route oral; settings: in vivo
Mus musculus [28] = assay: Dose normalized Cmax in CD1 mouse at 21 mg/kg, po by UPLC-MS/MS analysis; format: ADME, organism-based; settings: in vivo
[29] = AUClast in CD1 mouse at 21 mg/kg, po by UPLC-MS/MS analysis; format: ADME, organism-based; parameters: dose 21 mg/kg, time 0 - last, route oral; settings: in vivo
[30] = AUC (infinity) in CD1 mouse at 21 mg/kg, po by UPLC-MS/MS analysis; format: ADME, organism-based; parameters: dose 21 mg/kg, time infinity, route oral; settings: in vivo
Mus musculus [31] = assay: Dose normalized AUC (infinity) in CD1 mouse at 21 mg/kg, po by UPLC-MS/MS analysis; format: ADME, organism-based; settings: in vivo
Mus musculus [32] = assay: Extrapolated AUC in CD1 mouse at 21 mg/kg, po by UPLC-MS/MS analysis; format: ADME, organism-based; settings: in vivo
[33] = Apparent volume of distribution during terminal phase in CD1 mouse at 21 mg/kg, po by UPLC-MS/MS analysis; format: ADME, organism-based; settings: in vivo, read-out: Vz/F
[34] = Apparent oral clearance in CD1 mouse at 21 mg/kg, po by UPLC-MS/MS analysis; format: ADME, organism-based; settings: in vivo
[35] = target: T2, 11-beta-hydroxysteroid dehydrogenase type 2 (Homo sapiens) (UniProt P80365); assay: Inhibition of human full-length 11beta-HSD2 expressed in HEK293 cells at 10 uM using cortisol as substrate after 2 hrs by LC-MS analysis relative to control; format: cell-based
T2 sequence (whole entry): T1 sequence (P80365 whole entry)

Compound: O=C(C1CCCCC1)N1CC2C3CCC(C4CC34)C2C1 (configuration not stated)
- IC50 [1]: 30 nM
- IC50 [2]: < 100 nM
- remaining at 0.5 h, 10 µM [3]: 94%
- Papp [4]: > 30 ×10⁻⁶ cm/s
- IC50 [5]: 80 nM
- remaining at 0.5 h, 10 µM [6]: 93%
- concentration at 3 h [7]: 1.45 ng/mL
- Activity (Mus musculus [8]): Active
- Activity (Mus musculus [9]): Active
- Activity (Mus musculus [10]): Active
- Activity (Mus musculus [11]): Active
- Activity (Mus musculus [12]): Active
- Activity (Mus musculus [13]): Active
- Activity (Mus musculus [14]): inactive
- Activity (Mus musculus [15]): inactive
- Activity (Mus musculus [16]): inactive
- concentration at 0.5 h [17]: 44.6 ng/mL
- concentration at 1 h [18]: 10.3 ng/mL
- concentration at 3 h [19]: 2.12 ng/mL
- concentration at 5 h [20]: 0.28 ng/mL
- Activity (Mus musculus [21]): Active
- Activity (Mus musculus [22]): inactive
- Ratio [23]: 5
- k el [24]: 0.00025 s⁻¹
- half-life [25]: 46.3 min
- Tmax [26]: 30 min
- Cmax [27]: 44.6 ng/mL
- Cmax/dose (Mus musculus [28]): 2.123 kg·ng/mL/mg
- AUC(0-t) [29]: 39.7 ng·h/mL
- AUC(0-inf) [30]: 40 ng·h/mL
- AUC/dose (Mus musculus [31]): 1.906 kg·ng·h/mL/mg
- %AUCextra (Mus musculus [32]): 0.787%
- Vd/F [33]: 583 L/kg
- CL/F [34]: 525 L/h/kg

Compound: O=C(C1CCCCC1)N1CC2C3CCC(C3)C2C1 (configuration not stated)
- IC50 [1]: 90 nM
- IC50 [2]: < 100 nM
- remaining at 0.5 h, 10 µM [3]: 37%
- Papp [4]: 5.2 ×10⁻⁶ cm/s

Compound: O=C(C1CCCCC1)N1CC2C3C=CC(CC3)C2C1 (configuration not stated)
- remaining at 0.5 h, 10 µM [3]: 44%

Compound: O=C(C1CCCCC1)N1CC23CC=CCC2(CC=CC3)C1 (configuration not stated)
- IC50 [1]: 40 nM
- inhibition [35]: 100%

Compound: O=C(C1CCCCC1)N1CC2C3C=CC(C3)C2C1 (configuration not stated)
- IC50 [1]: 20 nM
- IC50 [2]: < 100 nM
- remaining at 0.5 h, 10 µM [3]: 60%

Compound: O=C(C1CCCCC1)N1CC2C3C=CC(C4CC34)C2C1 (configuration not stated)
- IC50 [1]: 20 nM
- IC50 [2]: 1000 to 10000 nM
- remaining at 0.5 h, 10 µM [3]: 27%

Compound: CCN1CCC[C@@H]1C(=O)NC1C2CC3CC(C2)CC1C3 (some centres not stated)
- inhibition [35]: 88%
- remaining at 0.5 h, 10 µM [3]: 79%

Compound: O=C(C1CCCCC1)N1CC2C3CCC(CC3)C2C1 (configuration not stated)
- IC50 [1]: 20 nM
- IC50 [2]: 100 to 1000 nM
- remaining at 0.5 h, 10 µM [3]: 17%
